Laboratory results reported in publication PMC8661032, “Broad-Spectrum Antibacterial Peptide Kills Extracellular and Intracellular Bacteria Without Affecting Epithelialization” (Frontiers in Microbiology, 2021).
Values after ≈ are worked out from the molar mass of the structure shown. Residues, ends and D or L forms follow the SMILES beside them.

Tests used:
K. pneumoniae = test: microbe, parasite or virus in culture; conditions: for MIC: Klebsiella pneumoniae
Protocol: (§1) Briefly, bacterial colonies from blood agar plates were suspended and grown in Cation-Adjusted Mueller-Hinton Broth (CAMHB, […] Ca^2+, […] Mg^2+). The bacterial suspension was adjusted to 0.5 McFarland standard (∼1 × 10^8 colony-forming units (CFU)/ml) and serial diluted 1:200 in CAMHB (∼5 × 10^5 CFU/mL). […] The suspension was plated out on blood agar plates to confirm the CFU/ml. Both the microtiter plates and the blood agar plates were incubated at 37°C for 24 h.

E. cloacae = test: microbe, parasite or virus in culture; conditions: Enterobacter cloacae, 24 h
Protocol: as §1

E. coli [1] = test: Growth inhibition assay (OD600 over 24 h); assay type: cell-based, Escherichia coli; parameters: Reduction of viability E. coli (60 μg/ml): key to the marks not given beside the values; conditions: LB medium
Protocol: An overnight culture of Escherichia coli was diluted 1:100 in Luria-Bertani (LB) medium and allowed to grow until an optical density (OD) at 600 nm (OD600) of 0.06–0.1. APIM-peptides were prepared by serial dilution in Milli-Q H2O and kept at 4°C. Fresh LB medium (60 μl) was added to a flat-bottom microtiter plate. The bacterial suspension was diluted 1:100 in LB, and 75 μl of this suspension was added to the wells. Finally, 15 μl of APIM-peptide solution (to final concentrations 60, 120, and 240 μg/ml) or distilled water (positive control) was added to the wells, reaching a total volume of 150 μl per well. Data are presented only for the dose that separated the effect of the different peptides, i.e., 60 μg/ml. A blank sterile medium was used as negative control. The plates were incubated with shaking at 510 rpm at 37°C inside a plate reader (TECAN, Spark®), and OD was read every hour over a period of 24 h.
The MIC for E. coli in LB medium is higher than that in CAMHB; thus, concentrations higher than the MIC given in Table 2 are used in the growth inhibition and mutagenesis assays. […]
E. coli. Growth of E. coli in LB medium over 24 hours (Optical Density (OD) 600 nm) after addition
of APIM-peptide variants 1-5 (60 µg/mL) at time t=0 (see Table 2). Negative (-) control is no
bacteria added, positive (+) control is untreated bacteria.
highest inhibition of growth.
control (black filled line).

HEK293 cells = test system: HEK293 cells
Protocol: HEK293 cells (6,000 cells/well) were seeded in 96-well microtiter plates. After 4 h, APIM-peptides (12–48 μg/ml) were added, and the cells were incubated without change of media for up to 4 days. Viability was measured using the 3-(4,5-dimethylthiazol-2-yl)-2,5-diphenyltetrazolium bromide (MTT) assay as described ([Gilljam et al., 2009]).
(1 picture or pasted object on this page, not shown here)

E. coli [2] = test: Rifampicin (RifR) mutagenesis assay after UV-C; assay type: cell-based, Escherichia coli; conditions: for Reduction of mutation frequency E. coli (20 μg/ml): 20 μg/ml peptide, UV-C 20 mJ/cm^2, RifR assay, relative to untreated control
Protocol: The rifampicin (Rif^R) mutagenesis assay was performed as described ([Nedal et al., 2020]). Briefly, an overnight culture of E. coli was diluted 1:1,000 and grown until an OD600 of 0.01. APIM-peptides (20 μg/ml) were added to LB media with glass beads (for uniform distribution of APIM-peptides) and incubated for 30 min at 37°C. The pellets were next collected, resuspended in 500 μl PBS, and exposed to UV-C (20 mJ/cm^2) in a six-well plate at 4°C. The unexposed bacteria (-UV) were otherwise handled exactly like the UV-exposed bacteria. Next, the cells were resuspended in LB media and incubated in a rotary shaker at 37°C at 250 rpm for 2 h before being harvested, diluted, and plated on LB with soft agar with and without rifampicin (100 μg/ml). Mutation frequency, Rif^R/10^8, is obtained as follows: (number of colonies on the rifampicin plate (Rif^R)/(number of colonies on LB plates without antibiotics), per milliliter of bacterial suspension. […]
mutagenesis in E. coli more efficiently than the other peptide variants.
Increase in mutation frequencies after treatment with UV-C (20 mJ/cm2) relative to spontaneous mutations frequencies using the RifR assay were determined. This increase is set to 100% for untreated control, and % reduction after addition of peptides 1-5 (20 μg/mL) are shown. Mean ± SD from three independent experiments. * p<0.05, ** p<0.005

[3] = test system: S. epidermidis MRSE (SO-SEP9-1); conditions: SO-SEP9-1, 24 h
Protocol: as §1

E. coli [4] = test: microbe, parasite or virus in culture; conditions: K-12 MG1655; CLSI broth microdilution, CAMHB, 37°C, 24 h, visible growth; net peptide concentration
Protocol: as §1

E. faecalis = test: microbe, parasite or virus in culture; conditions: for MIC: Enterococcus faecalis
Protocol: as §1

P. aeruginosa = test: microbe, parasite or virus in culture; conditions: for MIC: Pseudomonas aeruginosa
Protocol: as §1

## CO/N=C(\C(=O)N[C@@H]1C(=O)N2C(C(=O)O)=C(COC(C)=O)CS[C@H]12)c1csc(N)n1 [Cefotaxime, cefotaxime]
K. pneumoniae; ATCC 13883
  Combination effect with 0.5× MIC betatide: Additive 2×
K. pneumoniae; 24 h
  MIC: 2050 µg/mL (≈ 4500 µM)
K. pneumoniae; ATCC13883, 24 h
  MIC: 0.13 µg/mL (≈ 0.285 µM)
K. pneumoniae; SO-KPN19-1 (ESBL-CARBA-D)
  Combination effect with 0.5× MIC betatide: None
E. cloacae
  MIC: > 1020 µg/mL

## CC[C@H](C)[C@H](NC(=O)CNC(=O)[C@H](CCCCN)NC(=O)[C@@H](NC(=O)[C@H](CC(C)C)NC(=O)[C@H](Cc1c[nH]c2ccccc12)NC(=O)[C@H](CCCNC(=N)N)NC(=O)[C@H](CC(=O)O)NC(=O)[C@H](CCSC)NC(C)=O)C(C)C)C(=O)N[C@@H](CC(C)C)C(=O)N[C@@H](CCC(N)=O)C(=O)N[C@@H](Cc1c[nH]c2ccccc12)C(=O)N[C@@H](CCCNC(=N)N)C(=O)N[C@@H](CCCCN)C(=O)N[C@H](C(=O)N[C@@H](CCCNC(=N)N)C(=O)N[C@@H](CCCNC(=N)N)C(=O)N[C@@H](CCCNC(=N)N)C(=O)N[C@@H](CCCNC(=N)N)C(=O)N[C@@H](CCCNC(=N)N)C(=O)N[C@@H](CCCNC(=N)N)C(=O)N[C@@H](CCCNC(=N)N)C(=O)N[C@@H](CCCNC(=N)N)C(N)=O)[C@@H](C)CC [Peptide 5] (Ac-MDRWLVKGILQWRKIRRRRRRRR-NH2)
E. coli [1]; 60 μg/ml peptide, OD600 every hour over 24 h, relative to untreated control
  Reduction of viability E. coli (60 μg/ml): ++
HEK293 cells
  Reduction of viability HEK293 (24 μg/ml): +
E. coli [2]; 20 μg/mL, UV-C 20 mJ/cm2, RifR assay, three independent experiments
  UV-induced mutation frequencies relative to control: significantly reduced
E. coli [2]
  Reduction of mutation frequency E. coli (20 μg/ml): ++
[3]
  MIC S. epidermidis MRSE: 16 µg/mL (≈ 4.95 µM)
E. coli [4]
  MIC E. coli: 16 µg/mL (≈ 4.95 µM)

## CC(=O)NC[C@H]1CN(c2ccc(N3CCOCC3)c(F)c2)C(=O)O1 [Linezolid, linezolid]
E. faecalis; ATCC 29212
  Combination effect with 0.5× MIC betatide: None
E. faecalis; 24 h
  MIC: 8 µg/mL (≈ 23.7 µM)
E. faecalis; ATCC29212, 24 h
  MIC: 2 µg/mL (≈ 5.93 µM)
E. faecalis; SO-EFA19-1 (optrA+)
  Combination effect with 0.5× MIC betatide: None

## CC(C)(O/N=C(\C(=O)N[C@@H]1C(=O)N2C(C(=O)[O-])=C(C[n+]3ccccc3)CS[C@H]12)c1csc(N)n1)C(=O)O [Ceftazidime, ceftazidime]
P. aeruginosa; ATCC 27853
  Combination effect with 0.5× MIC betatide: None
P. aeruginosa; 24 h
  MIC: 128 µg/mL (≈ 234 µM)
P. aeruginosa; ATCC27853, 24 h
  MIC: 2 µg/mL (≈ 3.66 µM)
P. aeruginosa; SO-PAE19-1 (multidrug resistant)
  Combination effect with 0.5× MIC betatide: None
E. cloacae
  MIC: > 1000 µg/mL

## CC[C@H](C)[C@H](NC(=O)[C@H](CCCCN)NC(=O)[C@H](CCCNC(=N)N)NC(=O)[C@H](CCCCN)NC(=O)[C@H](CCCCN)NC(=O)[C@H](CCCCN)NC(=O)[C@H](Cc1c[nH]c2ccccc12)NC(=O)[C@H](CCCCN)NC(=O)[C@@H](NC(=O)[C@H](CC(C)C)NC(=O)[C@H](Cc1c[nH]c2ccccc12)NC(=O)[C@H](CCCNC(=N)N)NC(=O)[C@H](CC(=O)O)NC(=O)[C@H](CCSC)NC(C)=O)C(C)C)C(=O)N[C@@H](CCCNC(=N)N)C(=O)N[C@@H](CCCNC(=N)N)C(=O)N[C@@H](CCCNC(=N)N)C(=O)N[C@@H](CCCNC(=N)N)C(=O)N[C@@H](CCCNC(=N)N)C(=O)N[C@@H](CCCNC(=N)N)C(=O)N[C@@H](CCCNC(=N)N)C(=O)N[C@@H](CCCNC(=N)N)C(=O)N[C@@H](CCCNC(=N)N)C(=O)N[C@@H](CCCNC(=N)N)C(=O)N[C@@H](CCCNC(=N)N)C(N)=O [Peptide 1] (Ac-MDRWLVKWKKKRKIRRRRRRRRRRR-NH2)
E. coli [1]; 60 µg/mL, over 24 hours, Supplementary Figure S1
  inhibition of growth of E. coli (OD 600 nm): least efficient
HEK293 cells
  Reduction of viability HEK293 (24 μg/ml): +
E. coli [2]
  Reduction of mutation frequency E. coli (20 μg/ml): +
[3]
  MIC S. epidermidis MRSE: 32 µg/mL (≈ 8.71 µM)
E. coli [4]
  MIC E. coli: 32 µg/mL (≈ 8.71 µM)
